# Measured values taken from patent US6492174B1, “Methods of initiating embryogenic cultures in plants” (Institute of Paper Science & Technology, priority 2000, dated 2002).
# Tests used:
# [1] = test system: Loblolly pine megagametophytes; assay: Loblolly pine extrusion and initiation immersed in liquid media #1071 with brassinolide, eight weeks; format: cell-based
# Description: In Examples 4 and 5, the effect of varying brassinolide concentration in a solid media was measured. This experiment was conducted to determine the optimal concentration of brassinolide in a liquid media. The explants in this experiment were megagametophytes isolated from the cones of four open-pollinated trees representing a multiplicity of genotypes. The seeds contained Stage 2-4 zygotic embryos. Seeds were sterilized as described in Example 1. Seed coats were split and the megagametophytes were isolated by removing integuments and nucellus. Isolated megagametophytes were wholly immersed in liquid media #1071 (Table 47) containing varying concentrations of brassinolide. The five treatments consisted of media containing zero, 0.05, 0.1, 0.15 and 0.2 μM brassinolide (Table 16). Two ml of each media was poured into wells on culture well plates. […]. The experiment consisted of four replications per treatment, per cone collection.
# Nevertheless, overall extrusion frequency was increased in the brassinolide treatments as compared to the control (Table 17). Initiation frequency was increased by the addition of brassinolide from 0.05 to 0.2 μM (Table 18). […] Nevertheless, one of skill in the art could empirically determine the upper and lower effective concentration of brassinolide which is effective in promoting initiation in a liquid media.
# [2] = test system: Loblolly pine megagametophytes; assay: Loblolly pine extrusion and initiation on solid media #1042 (no ABA) with brassinolide, eight weeks; format: cell-based
# Description: The promotion of extrusion and initiation in Example 4 was obtained on media containing both brassinolide and abscisic acid (ABA). ABA is known in the art to enhance initiation. This experiment was conducted to determine if brassinolide will promote initiation independently of ABA. The explants were megagametophytes from summer cone collections from four individual trees, each representing a distinct genotype. The seeds contained Stage 2-4 zygotic embryos. Megagametophytes were excised from sterilized seeds, as described in Example 4.
# The control media was solid media #1042, which contains no ABA or brassinolide (Table 47). Treatment media were composed of #1042 plus 0, 0.025, 0.10 or 0.25 μM brassinolide (Table 13). While still liquid, 2 ml media was poured into wells on a culture well plate and allowed to solidify. […] Each replication consisted of ten megagametophytes in adjacent wells on a single well plate. Plates were wrapped with PARAFILM and incubated at 23-24° C. in the dark.
# Both extrusion (Table 14) and initiation (Table 15) frequencies were higher in the brassinolide treatments than in the control. There was no clear brassinolide concentration effect within the tested range. […] One of skill in the art can empirically determine the optimal effective upper and lower brassinolide concentration limits for solid media.
smiles,measurement,setting,value
CC(C)[C@H](C)[C@@H](O)[C@H](O)[C@@H](C)[C@H]1CC[C@H]2[C@@H]3COC(=O)[C@H]4C[C@H](O)[C@H](O)C[C@]4(C)[C@H]3CC[C@]12C [brassinolide],Initiation frequency vs control,"[1]; brassinolide from 0.05 to 0.2 μM, liquid media",increased
same,% of Megagametophytes Extruding,"[1]; genotype FN, 0.05 μM Br",32.5 (12.5) %
same,% of Megagametophytes Initiating,"[1]; genotype FN, 0.05 μM Br",20.0 (10.8) %
same,% of Megagametophytes Extruding,"[1]; genotype FN, 0.10 μM Br",15.0 (6.5) %
same,% of Megagametophytes Initiating,"[1]; genotype FN, 0.10 μM Br",10.0 (4.1) %
same,% of Megagametophytes Extruding,"[1]; genotype FN, 0.15 μM Br",40.0 (20.4) %
same,% of Megagametophytes Initiating,"[1]; genotype FN, 0.15 μM Br",20.0 (12.2) %
same,% of Megagametophytes Extruding,"[1]; genotype FN, 0.2 μM Br",50.0 (18.3) %
same,% of Megagametophytes Initiating,"[1]; genotype FN, 0.2 μM Br",35.0 (15.0) %
same,% of Megagametophytes Extruding,"[1]; genotype FO, 0.05 μM Br",0.0 (0) %
same,% of Megagametophytes Initiating,"[1]; genotype FO, 0.05 μM Br",0 (0) %
same,% of Megagametophytes Extruding,"[1]; genotype FO, 0.10 μM Br",0.0 (0) %
same,% of Megagametophytes Initiating,"[1]; genotype FO, 0.10 μM Br",0 (0) %
same,% of Megagametophytes Extruding,"[1]; genotype FO, 0.15 μM Br",0.0 (0) %
same,% of Megagametophytes Initiating,"[1]; genotype FO, 0.15 μM Br",0 (0) %
same,% of Megagametophytes Extruding,"[1]; genotype FO, 0.2 μM Br",0.0 (0) %
same,% of Megagametophytes Initiating,"[1]; genotype FO, 0.2 μM Br",0 (0) %
same,% of Megagametophytes Extruding,"[1]; genotype FX, 0.05 μM Br",17.5 (6.3) %
same,% of Megagametophytes Initiating,"[1]; genotype FX, 0.05 μM Br",17.5 (6.3) %
same,% of Megagametophytes Extruding,"[1]; genotype FX, 0.10 μM Br",27.5 (12.5) %
same,% of Megagametophytes Initiating,"[1]; genotype FX, 0.10 μM Br",25.0 (10.4) %
same,% of Megagametophytes Extruding,"[1]; genotype FX, 0.15 μM Br",15.0 (5.0) %
same,% of Megagametophytes Initiating,"[1]; genotype FX, 0.15 μM Br",12.5 (4.8) %
same,% of Megagametophytes Extruding,"[1]; genotype FX, 0.2 μM Br",17.5 (4.8) %
same,% of Megagametophytes Initiating,"[1]; genotype FX, 0.2 μM Br",17.5 (4.8) %
same,% of Megagametophytes Extruding,"[1]; genotype FZ, 0.05 μM Br",0.0 (0) %
same,% of Megagametophytes Initiating,"[1]; genotype FZ, 0.05 μM Br",0 (0) %
same,% of Megagametophytes Extruding,"[1]; genotype FZ, 0.10 μM Br",2.5 (2.5) %
same,% of Megagametophytes Initiating,"[1]; genotype FZ, 0.10 μM Br",2.5 (2.5) %
same,% of Megagametophytes Extruding,"[1]; genotype FZ, 0.15 μM Br",2.5 (2.5) %
same,% of Megagametophytes Initiating,"[1]; genotype FZ, 0.15 μM Br",2.5 (2.5) %
same,% of Megagametophytes Extruding,"[1]; genotype FZ, 0.2 μM Br",0.0 (0) %
same,% of Megagametophytes Initiating,"[1]; genotype FZ, 0.2 μM Br",0 (0) %
same,% of Megagametophytes Extruding,"[1]; total, 0.05 μM Br",12.5%
same,% of Megagametophytes Initiating,"[1]; total, 0.05 μM Br",9.4%
same,% of Megagametophytes Extruding,"[1]; total, 0.10 μM Br",11.3%
same,% of Megagametophytes Initiating,"[1]; total, 0.10 μM Br",9.4%
same,% of Megagametophytes Extruding,"[1]; total, 0.15 μM Br",14.4%
same,% of Megagametophytes Initiating,"[1]; total, 0.15 μM Br",8.8%
same,% of Megagametophytes Extruding,"[1]; total, 0.2 μM Br",16.9%
same,% of Megagametophytes Initiating,"[1]; total, 0.2 μM Br",13.1%
same,extrusion and initiation frequencies vs control,"[2]; 0.025, 0.10 or 0.25 μM brassinolide, absence of ABA",higher
same,% of Megagametophytes Extruding,"[2]; genotype 5-1207, 0.025 μM Br",38.3 (15.9) %
same,% of Megagametophytes Initiating,"[2]; genotype 5-1207, 0.025 μM Br",27.5 (16.3) %
same,% of Megagametophytes Extruding,"[2]; genotype 5-1207, 0.10 μM Br",30.0 (13.3) %
same,% of Megagametophytes Initiating,"[2]; genotype 5-1207, 0.10 μM Br",20 (15.3) %
same,% of Megagametophytes Extruding,"[2]; genotype 5-1207, 0.25 μM Br",20.0 (10.0) %
same,% of Megagametophytes Initiating,"[2]; genotype 5-1207, 0.25 μM Br",16.7 (8.8) %
same,% of Megagametophytes Extruding,"[2]; genotype 7-1051, 0.025 μM Br",43.3 (8.8) %
same,% of Megagametophytes Initiating,"[2]; genotype 7-1051, 0.025 μM Br",20 (20.0) %
same,% of Megagametophytes Extruding,"[2]; genotype 7-1051, 0.10 μM Br",46.7 (13.3) %
same,% of Megagametophytes Initiating,"[2]; genotype 7-1051, 0.10 μM Br",26.7 (8.8) %
same,% of Megagametophytes Extruding,"[2]; genotype 7-1051, 0.25 μM Br",53.3 (12.0) %
same,% of Megagametophytes Initiating,"[2]; genotype 7-1051, 0.25 μM Br",16.7 (8.8) %
same,% of Megagametophytes Extruding,"[2]; genotype 11-1055, 0.025 μM Br",66.7 (3.3) %
same,% of Megagametophytes Initiating,"[2]; genotype 11-1055, 0.025 μM Br",53.3 (6.7) %
same,% of Megagametophytes Extruding,"[2]; genotype 11-1055, 0.10 μM Br",63.3 (13.3) %
same,% of Megagametophytes Initiating,"[2]; genotype 11-1055, 0.10 μM Br",46.7 (14.5) %
same,% of Megagametophytes Extruding,"[2]; genotype 11-1055, 0.25 μM Br",70.0 (11.5) %
same,% of Megagametophytes Initiating,"[2]; genotype 11-1055, 0.25 μM Br",53.3 (8.8) %
same,% of Megagametophytes Extruding,"[2]; genotype 11-1507, 0.025 μM Br",26.7 (6.7) %
same,% of Megagametophytes Initiating,"[2]; genotype 11-1507, 0.025 μM Br",13.3 (3.3) %
same,% of Megagametophytes Extruding,"[2]; genotype 11-1507, 0.10 μM Br",36.7 (3.3) %
same,% of Megagametophytes Initiating,"[2]; genotype 11-1507, 0.10 μM Br",16.7 (8.8) %
same,% of Megagametophytes Extruding,"[2]; genotype 11-1507, 0.25 μM Br",23.3 (3.3) %
same,% of Megagametophytes Initiating,"[2]; genotype 11-1507, 0.25 μM Br",13.3 (3.3) %
same,% of Megagametophytes Extruding,"[2]; total, 0.025 μM Br",43.8%
same,% of Megagametophytes Initiating,"[2]; total, 0.025 μM Br",28.5%
same,% of Megagametophytes Extruding,"[2]; total, 0.10 μM Br",44.2%
same,% of Megagametophytes Initiating,"[2]; total, 0.10 μM Br",27.5%
same,% of Megagametophytes Extruding,"[2]; total, 0.25 μM Br",41.7%
same,% of Megagametophytes Initiating,"[2]; total, 0.25 μM Br",25.0%
